According to PMC10073729, “Synthesis, radiolabeling, and evaluation of 68Ga-labeled aminoquinoxaline derivative as a potent PFKFB3-targeted PET tracer” (Frontiers in Chemistry, 2023):
Like-named read-outs stand apart in the source and are kept apart here.

How the values were obtained:
[1] = test system: F2,6BP production in HCT116 cells; assay: Cellular inhibition assay: F2,6BP production in glucose-starved, restimulated HCT116 cells; assay type: cell-based; settings: Homo sapiens, HCT-116, 25 mM glucose restimulation 4 h, triplicate
Method: For the cellular inhibition assay, the protocol used in this section was also from the same literature as the PFKFB3 enzymatic activity assay, with minor modifications ([Boutard et al., 2019]). Briefly, glucose-starved HTC116 cells were pretreated with diluted compounds at different concentrations and restimulated with 25 mM glucose for 4 h to trigger glycolytic flux. Cells were then lysed by NaOH ([…]) under 85°C for 10 min and transferred to a HEPES solution (20 mM) neutralized by acetic acid (1 M) to pH 7.5–8.0. The lysates (equal amounts, normalized to protein level) were reacted in a mixture of α-glycerophosphate dehydrogenase (0.17 U), aldolase (0.083 U), pyrophosphate-dependent fructose-6-phosphate kinase from potato (0.17 U) and triosephosphate isomerase (0.83 U) in Tris (pH 8.0), glucose-6-phosphate (17 mM), fructose-6-phosphate (2.5 mM) and magnesium chloride (5.5 mM) in a total volume of 100 µL. The reaction was induced by the addition of NADH (0.14 mM) under 30°C, and the absorbance at 340 nm was measured 30 min post addition. All absorbances for reaction mixtures for test compounds with different concentrations were recorded and used for IC50 calculations in GraphPad Prism 5.0 software.

[2] = target: T1, Human Recombinant PFKFB3 Protein (His and GST Tag) (Homo sapiens, UniProt Q16875); assay: ADP-Glo-based PFKFB3 enzymatic activity inhibition assay; assay type: biochemical; settings: triplicate
T1 construct: His; GST; purchased SinoBiological
T1 sequence (Q16875 whole entry): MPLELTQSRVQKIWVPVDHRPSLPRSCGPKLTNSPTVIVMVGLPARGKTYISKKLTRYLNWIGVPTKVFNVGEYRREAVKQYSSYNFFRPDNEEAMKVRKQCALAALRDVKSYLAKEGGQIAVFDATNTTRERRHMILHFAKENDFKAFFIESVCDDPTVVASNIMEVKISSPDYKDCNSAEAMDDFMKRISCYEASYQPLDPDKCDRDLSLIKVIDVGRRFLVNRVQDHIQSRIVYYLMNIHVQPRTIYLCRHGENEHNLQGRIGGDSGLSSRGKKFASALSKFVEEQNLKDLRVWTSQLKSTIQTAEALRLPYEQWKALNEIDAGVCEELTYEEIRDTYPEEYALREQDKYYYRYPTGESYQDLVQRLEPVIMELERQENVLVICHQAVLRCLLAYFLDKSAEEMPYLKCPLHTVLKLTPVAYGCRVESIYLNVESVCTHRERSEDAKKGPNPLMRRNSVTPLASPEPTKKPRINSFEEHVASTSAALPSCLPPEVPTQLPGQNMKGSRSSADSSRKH
Source text: All regents used in this section were purchased from Sigma, and the Human Recombinant PFKFB3 Protein (His and GST Tag) was purchased from SinoBiological. The ADP-Glo™ Kinase Assay kit was also obtained from Promega.
The PFKFB3 enzymatic activity assay followed an identical procedure used in previously published literature, along with the same regents and materials ([Boutard et al., 2019]).

PFKFB3 = settings: 2019, cited from earlier work
[3] = representative PFKFB3 inhibitors, Figure 1, ref Boyd et al., 2015, Boutard et al., Wang et al., 2020, read-out: IC50 (PFKBF3)

SMILES	IC50 [1] [nM]	IC50 [2] [nM]	IC50 (PFKFB3; ref Boutard et al., read-out: IC50 enzymatic PFKFB3 inhibition (reported)) [nM]	IC50 (PFKFB3; [3]) [nM]
CN1CCCC(NC(=O)c2cncc(Nc3cc(-c4ccc5ccn(C)c5c4)c4nccnc4c3)c2)C1 (centres unmarked) [compound 4]	2300 ± 800	6.7 ± 2.3	2	
Cn1ccc2ccc(-c3cc(Nc4cncc(C(=O)NC5CCCN(C(=O)CCC(C(=O)O)N6CCN(CC(=O)O)CCN(CC(=O)O)CCN(CC(=O)O)CC6)C5)c4)cc4nccnc34)cc21 (centres unmarked) [compound 5, 2,2′,2′′-(10-(1-carboxy-4-(3-(5-((8-(1-methyl-1H-indol-6-yl)quinoxalin-6-yl)amino)nicotinamido)piperidin-1-yl)-4-oxobutyl)-1,4,7,10-tetraazacyclododecane-1,4,7-triyl) triacetic acid]	5300 ± 1400	12.5 ± 4.5		
Cc1c(S(=O)(=O)Nc2cccc(-c3nnn[nH]3)c2)oc2ccc(C(C)C)cc12 [compound 2]				80
CC(C)OC(=O)c1cccc(-c2cc(S(=O)(=O)Nc3ccc(C(=O)O)c(O)c3)sc2Cl)c1 [compound 1]				150
Cc1noc(C)c1Cn1nc(C#N)c2cc(Oc3ccc(NC(=O)[C@@H]4CCCN4)cc3)ccc21 [compound 3]				3
